Measured values published in doi:10.1101/2022.08.09.502705v1 (biorxiv, 2022).

Experiments:
iFluoxSnFR [1] = assay: fluorescence concentration-response of purified biosensor; assay type: binding; details: purified protein
iFluoxSnFR [2] = assay: isothermal titration calorimetry; assay type: binding; details: 3x PBS pH […] °C
hSERT = hSERT (Homo sapiens, UniProt P31645, K490T); assay: cell-based
iEscSnFR [3] = assay: fluorescence concentration-response of purified biosensor; assay type: binding; details: purified protein
iEscSnFR [4] = assay: isothermal titration calorimetry; assay type: binding; details: 3x PBS pH […] °C

Chain of hSERT (P31645 whole entry K490T): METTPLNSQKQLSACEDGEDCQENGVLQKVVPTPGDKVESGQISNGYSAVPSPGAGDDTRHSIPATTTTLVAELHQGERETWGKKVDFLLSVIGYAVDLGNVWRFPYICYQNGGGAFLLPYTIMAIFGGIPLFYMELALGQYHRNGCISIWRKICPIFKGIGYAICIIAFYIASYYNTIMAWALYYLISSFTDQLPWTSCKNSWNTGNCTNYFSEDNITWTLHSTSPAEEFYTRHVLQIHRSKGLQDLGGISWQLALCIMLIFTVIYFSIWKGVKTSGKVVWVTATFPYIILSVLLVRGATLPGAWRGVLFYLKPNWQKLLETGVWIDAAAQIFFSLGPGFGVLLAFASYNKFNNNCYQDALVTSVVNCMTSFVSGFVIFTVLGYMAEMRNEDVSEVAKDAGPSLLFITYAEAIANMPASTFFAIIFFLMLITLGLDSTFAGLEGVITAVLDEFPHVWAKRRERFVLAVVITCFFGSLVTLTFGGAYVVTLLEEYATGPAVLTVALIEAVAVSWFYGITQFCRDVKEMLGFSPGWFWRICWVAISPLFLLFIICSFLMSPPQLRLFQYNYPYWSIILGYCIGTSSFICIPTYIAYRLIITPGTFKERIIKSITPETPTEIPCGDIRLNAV

| Compound | EC50 (iFluoxSnFR [1]) [µM] | EC50 (iEscSnFR [3]) [µM] | other results |
| --- | --- | --- | --- |
| C[N+](C)(C)CCC(Oc1ccc(C(F)(F)F)cc1)c1ccccc1 (racemic) [N-N-dimethylfluoxetine] | 14 ± 0.4 | – | Kd (iFluoxSnFR [2]): 28.1 ± 3.7 µM; IC50 (hSERT): 0.6 ± 0.2 µM |
| C[N+](C)(C)CCC[C@@]1(c2ccc(F)cc2)OCc2cc(C#N)ccc21 [N-methylescitalopram] | – | 1.8 ± 0.2 | – |
| C[N+](C)(C)CCO [choline] | – | 140 ± 20 | – |

The next lines start with results.

| EC50 (iFluoxSnFR [1]) [µM] | EC50 (iEscSnFR [3]) [µM] | Compound | other results |
| --- | --- | --- | --- |
| – | 4.5 ± 0.2 | CN(C)CCC[C@@]1(c2ccc(F)cc2)OCc2cc(C#N)ccc21 [escitalopram] | Kd (iEscSnFR [4]): 3.4 ± 0.1 µM |
| 63 ± 20 | – | NCCC(Oc1ccc(C(F)(F)F)cc1)c1ccccc1 (centres unmarked) [norfluoxetine] | – |
